The values that follow come from ChEMBL document CHEMBL1139518, “A new structural motif for mu-opioid antagonists” (J Med Chem, 2005).

Where a SMILES comes first, the peptide text is derived from it.

Test [1] has as its target Delta-type opioid receptor (Rattus norvegicus, UniProt P33533). The experiment in a line: Inhibition of [3H][Ile5,6]-deltorphin I binding to rat Opioid receptor delta.
The species entered for test [2] is Mus musculus. The experiment in a line: Antagonist activity of compound against DPDPE-induced electrically evoked contractions of mouse vas deferens. The format is functional.
A short description of test [3]: Ratio of antagonist activity against TAPP-induced contractions of guinea pig ileum to that of DPDPE-induced contractions of mouse vas deferens. It counts as functional, Cavia porcellus.
Another test addresses Mu-type opioid receptor (Rattus norvegicus, UniProt P33535). Kind of test: Inhibition of [3H]naloxone binding to rat Opioid receptor mu.
Test [4] in a line: Antagonist activity of compound against TAPP-induced electrically evoked contractions of guinea pig ileum. The format is functional, Cavia porcellus.
The species named for test [5] is Mus musculus. Kind of test: Atagonist activity of compound against DPDPE-induced electrically evoked contractions of mouse vas deferens. The format is functional.

Chain of Mu-type opioid receptor (P33535 whole entry): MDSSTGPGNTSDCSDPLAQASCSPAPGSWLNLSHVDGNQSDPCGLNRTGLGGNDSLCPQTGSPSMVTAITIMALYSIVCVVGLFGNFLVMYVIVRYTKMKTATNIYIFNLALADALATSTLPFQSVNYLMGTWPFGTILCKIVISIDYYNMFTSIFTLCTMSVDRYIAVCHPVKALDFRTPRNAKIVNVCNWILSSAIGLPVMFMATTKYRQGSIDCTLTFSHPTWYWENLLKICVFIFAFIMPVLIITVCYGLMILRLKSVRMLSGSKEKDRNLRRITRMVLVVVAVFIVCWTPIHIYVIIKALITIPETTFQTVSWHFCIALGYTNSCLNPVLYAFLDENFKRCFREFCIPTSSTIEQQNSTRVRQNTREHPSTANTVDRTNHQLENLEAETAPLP
Chain of Delta-type opioid receptor (P33533 whole entry): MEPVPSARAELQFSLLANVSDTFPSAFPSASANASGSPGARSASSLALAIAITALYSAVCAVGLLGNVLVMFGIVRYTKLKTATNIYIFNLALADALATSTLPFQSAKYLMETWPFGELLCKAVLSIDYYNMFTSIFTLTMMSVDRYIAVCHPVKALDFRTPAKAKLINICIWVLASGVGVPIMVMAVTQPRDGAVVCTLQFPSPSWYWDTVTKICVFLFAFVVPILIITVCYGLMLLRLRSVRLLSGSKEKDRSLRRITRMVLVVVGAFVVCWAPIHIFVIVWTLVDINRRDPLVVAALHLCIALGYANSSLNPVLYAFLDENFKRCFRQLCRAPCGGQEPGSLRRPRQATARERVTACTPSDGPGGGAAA

As to `Cc1cc(O)cc(C)c1C[C@@H](N)CN1Cc2ccccc2C[C@H](NC(=O)Cc2ccccc2)C1=O`, the inhibition constant (Ki) in test [1] was determined as 684 nM; at Mu-type opioid receptor, 15.1 nM. Moreover, the Ke was determined as 185 nM in the test listed under Mus musculus [2] and 207 nM in test [4]. Besides, the Ratio in test [3] stood at 1.666.

Take `Cc1cc(O)cc(C)c1C[C@@H](N)CN1Cc2ccccc2C[C@@H](NC(=O)Cc2ccccc2)C1=O`: the values for the Ki (in test [1]; on Mu-type opioid receptor) were 2900 nM and 41.7 nM, respectively. The Ke in the test filed under Mus musculus [2] was 1440 nM; in test [4], 85.1 nM. Besides, the Ratio in test [3] was determined as 0.058.

Regarding `Cc1cc(O)cc(C)c1C[C@H](N)CN1Cc2ccccc2C[C@H](NC(=O)Cc2ccccc2)C1=O`, the Ki is 25.8 nM in test [1] and 3.3 nM on Mu-type opioid receptor. Besides, the Ke in the test listed under Mus musculus [2] came out at 318 nM; in test [4], 38.6 nM. For the same compound, the Ratio in test [3] was found to be 0.125.

As to `Cc1cc(O)cc(C)c1C[C@H](N)CN1Cc2ccccc2C[C@@H](NC(=O)Cc2ccccc2)C1=O`, the Ki turned out to be 1100 nM in test [1] and 23.5 nM at Mu-type opioid receptor. Further, the Ke in the test listed under Mus musculus [2] was determined as 1590 nM; in test [4] it was 823 nM. In addition, the Ratio in test [3] amounted to 0.5.

In the test listed under Mus musculus [5], `N[C@@H](Cc1ccc(O)cc1)C(=O)N1Cc2ccccc2C[C@H]1C(=O)N[C@@H](Cc1ccccc1)C(=O)N[C@@H](Cc1ccccc1)C(=O)O` (HELM PEPTIDE1{Y.[Tic].F.F}$$$$V2.0) registered a Ke of 4.8 nM.
